Experiments:
[1] = target: Norepinephrine transporter (Rattus norvegicus, UniProt Q9WTR4); experiment: Displacement of [3H]-[…] from norepinephrine transporter of rat brain membrane; format: tissue-based
[2] = target: T1, Muscarinic acetylcholine receptor M1 (Rattus norvegicus, UniProt P08482); experiment: Displacement of [3H]pirenzepine from muscarinic acetylcholine receptor M1 of rat brain membrane
T1 sequence (P08482 whole entry): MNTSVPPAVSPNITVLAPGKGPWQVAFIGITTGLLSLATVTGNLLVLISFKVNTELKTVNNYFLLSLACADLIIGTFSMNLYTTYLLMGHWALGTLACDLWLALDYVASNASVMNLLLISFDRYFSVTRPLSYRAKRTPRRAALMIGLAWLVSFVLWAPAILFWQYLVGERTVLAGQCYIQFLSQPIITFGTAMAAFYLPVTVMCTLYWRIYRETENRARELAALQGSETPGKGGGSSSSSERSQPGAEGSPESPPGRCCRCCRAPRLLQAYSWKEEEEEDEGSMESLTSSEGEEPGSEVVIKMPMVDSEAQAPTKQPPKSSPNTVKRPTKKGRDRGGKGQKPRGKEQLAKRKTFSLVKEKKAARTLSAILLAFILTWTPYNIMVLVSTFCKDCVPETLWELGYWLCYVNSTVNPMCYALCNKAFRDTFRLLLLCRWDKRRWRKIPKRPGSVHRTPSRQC

[3] = target: Monoamine transporters; Norepininephrine & dopamine (Rattus norvegicus) (UniProt P23977+Q9WTR4); experiment: Relative affinity for dopamine and norepinephrine transporters; format: protein assay
[4] = target: Sodium-dependent dopamine transporter (Rattus norvegicus, UniProt P23977); experiment: Displacement of [3H]WIN-35428 from dopamine transporter of rat brain membrane; format: tissue-based
Sequence of Sodium-dependent dopamine transporter (P23977 whole entry): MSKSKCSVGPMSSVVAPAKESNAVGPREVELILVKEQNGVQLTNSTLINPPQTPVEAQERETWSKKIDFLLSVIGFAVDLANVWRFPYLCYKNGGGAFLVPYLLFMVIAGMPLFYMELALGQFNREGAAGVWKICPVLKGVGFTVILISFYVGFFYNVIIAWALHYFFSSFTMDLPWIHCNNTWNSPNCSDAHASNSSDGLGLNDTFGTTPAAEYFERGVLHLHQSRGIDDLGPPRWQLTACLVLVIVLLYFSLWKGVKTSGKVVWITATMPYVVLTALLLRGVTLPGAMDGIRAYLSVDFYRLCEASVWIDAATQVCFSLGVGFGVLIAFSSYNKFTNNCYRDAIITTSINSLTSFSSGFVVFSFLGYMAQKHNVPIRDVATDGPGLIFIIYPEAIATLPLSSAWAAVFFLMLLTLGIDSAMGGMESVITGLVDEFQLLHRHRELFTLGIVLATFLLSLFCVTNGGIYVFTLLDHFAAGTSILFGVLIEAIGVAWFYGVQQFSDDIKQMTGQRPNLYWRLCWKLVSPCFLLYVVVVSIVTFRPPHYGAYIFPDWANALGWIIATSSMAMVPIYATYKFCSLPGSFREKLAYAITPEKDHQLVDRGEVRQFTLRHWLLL

[5] = target: Monoamine transporters; serotonin & dopamine (Rattus norvegicus) (UniProt P31652+P23977); experiment: Relative affinity for dopamine and serotonin transporters; format: protein assay
Sequence of Monoamine transporters; serotonin & dopamine (Rattus norvegicus) (P23977 whole entry, looked up): as the sequence (P23977 whole entry) above
Sequence of Monoamine transporters; serotonin & dopamine (Rattus norvegicus) (P31652 whole entry, looked up): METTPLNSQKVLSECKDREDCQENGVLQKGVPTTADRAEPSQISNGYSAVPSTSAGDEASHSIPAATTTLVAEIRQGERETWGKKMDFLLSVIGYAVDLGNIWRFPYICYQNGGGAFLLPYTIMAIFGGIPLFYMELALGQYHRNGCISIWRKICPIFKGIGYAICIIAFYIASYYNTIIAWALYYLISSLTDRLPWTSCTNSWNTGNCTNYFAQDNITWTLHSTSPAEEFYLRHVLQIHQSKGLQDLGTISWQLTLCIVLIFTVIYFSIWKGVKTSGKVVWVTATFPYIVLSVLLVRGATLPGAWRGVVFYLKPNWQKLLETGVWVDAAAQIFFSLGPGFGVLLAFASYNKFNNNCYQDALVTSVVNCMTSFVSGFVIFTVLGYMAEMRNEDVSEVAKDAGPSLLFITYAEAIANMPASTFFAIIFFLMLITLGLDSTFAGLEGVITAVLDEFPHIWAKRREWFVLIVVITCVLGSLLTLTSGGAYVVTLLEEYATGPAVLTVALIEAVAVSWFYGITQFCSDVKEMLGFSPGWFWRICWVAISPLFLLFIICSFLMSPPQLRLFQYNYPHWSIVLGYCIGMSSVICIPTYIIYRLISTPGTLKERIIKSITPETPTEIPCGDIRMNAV

[6] = species on record: Rattus norvegicus; experiment: Relative affinity for dopamine transporter and muscarinic acetylcholine M1 receptor
[7] = target: T2, Sodium-dependent serotonin transporter (Rattus norvegicus, UniProt P31652); experiment: Displacement of [3H]-citalopram from serotonin transporter of rat brain membrane; format: tissue-based
T2 sequence (P31652 whole entry): as the sequence (P31652 whole entry, looked up) above

[8] = target: T2, Sodium-dependent serotonin transporter; experiment: Displacement of [3H]citalopram from serotonin transporter of rat brain membrane; format: tissue-based

Sequence of Norepinephrine transporter (Q9WTR4 whole entry): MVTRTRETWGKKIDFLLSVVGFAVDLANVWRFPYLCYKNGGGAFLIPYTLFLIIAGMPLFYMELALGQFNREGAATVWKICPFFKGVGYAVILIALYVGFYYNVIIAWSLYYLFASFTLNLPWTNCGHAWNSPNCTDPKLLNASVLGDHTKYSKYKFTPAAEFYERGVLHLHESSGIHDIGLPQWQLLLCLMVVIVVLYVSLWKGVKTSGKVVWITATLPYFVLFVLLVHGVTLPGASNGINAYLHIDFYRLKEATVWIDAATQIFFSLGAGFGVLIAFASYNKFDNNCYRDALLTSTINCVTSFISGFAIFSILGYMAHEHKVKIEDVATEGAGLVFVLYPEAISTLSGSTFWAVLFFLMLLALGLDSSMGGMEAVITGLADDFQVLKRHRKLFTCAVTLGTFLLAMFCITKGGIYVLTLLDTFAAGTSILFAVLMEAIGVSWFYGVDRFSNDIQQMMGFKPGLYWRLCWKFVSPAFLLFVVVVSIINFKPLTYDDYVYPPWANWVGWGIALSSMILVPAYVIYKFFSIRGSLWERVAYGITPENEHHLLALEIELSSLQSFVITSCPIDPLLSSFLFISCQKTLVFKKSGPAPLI

SMILES	Ki [1]	Ki [2]	Selectivity [3]	Ki [4]	Selectivity [5]	Selectivity [6]	Ki [7]	Ki [8]
CN1C2CCC1CC(OC(c1ccc(F)cc1)c1ccc(F)cc1)C2 (stereo unspecified) [DIFLUOROBENZTROPINE]	0.844 µM							
COC(=O)[C@@H]1C2CC[C@@H](C[C@@H]1OC(=O)c1ccccc1)N2C (single isomer, unassigned) [COCAINE]		61400 nM						
CN1C2CC(OC(c3ccc(F)cc3)c3ccc(F)cc3)CC1[C@@H](C(=O)O)C2 (stereo partly specified)	1.38 µM	46.8 nM	238	5.81 nM	1430	8	8.29 µM	
CN1C2C[C@H](OC(c3ccc(F)cc3)c3ccc(F)cc3)CC1[C@@H](C(=O)Oc1ccccc1)C2 (stereo partly specified)	1.37 µM	552 nM	13	107 nM	35	5	3.73 µM	
CN1C2C[C@H](OC(c3ccc(F)cc3)c3ccc(F)cc3)CC1[C@@H](C(=O)OCc1ccccc1)C2 (stereo partly specified)	6.21 µM	2270 nM	52	119 nM	49	19	5.85 µM	
CN1C2CC(OC(c3ccc(F)cc3)c3ccc(F)cc3)CC1[C@H](O)C2 (stereo partly specified)	6.39 µM	27 nM	204	31.3 nM	374	1	11.7 µM	
CN1C2CC(OC(c3ccc(F)cc3)c3ccc(F)cc3)CC1[C@@H](O)C2 (stereo partly specified)	1.3 µM	48.3 nM	207	6.28 nM	1450	8		9.09 µM
COC(=O)[C@H]1CC2C[C@H](OC(c3ccc(F)cc3)c3ccc(F)cc3)CC1N2C (stereo partly specified)	6.91 µM	432 nM	121	57.1 nM	289	8	16.5 µM	
CN1C2C[C@H](OC(c3ccc(F)cc3)c3ccc(F)cc3)CC1[C@@H](C(=O)OCCc1ccccc1)C2 (stereo partly specified)	5.69 µM	3480 nM	33	171 nM	47	20	7.96 µM	
CCOC(=O)[C@H]1CC2C[C@H](OC(c3ccc(F)cc3)c3ccc(F)cc3)CC1N2C (stereo partly specified)	3.72 µM	142 nM	49	75.4 nM	186	2	14 µM	
CC(C)COC(=O)[C@H]1CC2C[C@H](OC(c3ccc(F)cc3)c3ccc(F)cc3)CC1N2C (stereo partly specified)	6.61 µM	723 nM	45	148 nM	54	5	7.96 µM	
CC(C)OC(=O)[C@H]1CC2C[C@H](OC(c3ccc(F)cc3)c3ccc(F)cc3)CC1N2C (stereo partly specified)	10.2 µM	784 nM	68	151 nM	98	5	14.8 µM	
O=C(Oc1ccccc1)[C@H]1CC2C[C@H](OC(c3ccc(F)cc3)c3ccc(F)cc3)CC1N2 (stereo partly specified)	3.17 µM	8430 nM	18	175 nM	25	48	4.44 µM	
COS(=O)(=O)[C@H]1CC2C[C@H](OC(c3ccc(F)cc3)c3ccc(F)cc3)CC1N2C (stereo partly specified)	6.88 µM	617 nM	85	81 nM	170	8	13.8 µM	
